Measurements as given in patent publication US20030104393A1, “Blood assessment of injury” (priority 2000, published 2003).

System: blood cells
Assay: Blood pattern of gene expression in epileptic individuals treated with anticonvulsant valporate or carbamazepine (Affymetrix U95A, SAM)
Assay type: in vivo, human
Details: for Upregulated genes for Carbamazepine: blood of epileptic individuals treated with carbamazepine vs epileptic individuals taking no anticonvulsant, value = Genbank accession of the upregulated gene; for Pattern of expression in blood for each drug: epileptic individuals treated with anticonvulsant vs epileptic individuals taking no anticonvulsant, FIG. 5
Text: FIG. 5 is a cluster analysis of the expression obtained from pediatric epilepsy patients prior to being treated compared to the expression of these individuals after being treated with anticonvulsant valporate (VPA) or the anticonvulsant carbamazepine (CPZ), as described in the Example 8;
To study the gene expression in Parkinson's patients, blood from over 30 patients is collected from healthy controls as well as from patients with a variety of disorders, including idiopathic Parkinson's patients with bradykinesia, rigidity and the characteristic tremor without dementia or evidence of any other neurological findings; progressive supranuclear palsy, bipolar disorder, schizophrenia, epilepsy, and Tourettes. A commercially available kit (Qiagen) is used to the blood cells from the whole blood samples, and total RNA isolated from the white blood cells. Two thirds of the RNA is used on DNA microarrays, and one third is used for PCR confirmation of the genes that are changed. After the purity of the RNA is checked ([…]), cDNA is synthesized from the total RNA and used to make biotin labeled cRNA. The cRNA is then applied to Affymetrix chips, human U95A chips that can screen for the expression of over 13,000 human genes including 11,000 known genes and 2,000 ESTs, and processed and scanned according to manufacturer's instructions. The chips are scanned twice for each patient sample. Genes that are expressed over two-fold compared to normals are plotted on figures. These genes are confirmed using standard techniques including PCR, Northern blotting or Western blotting. A separate statistical analysis is also applied to the data. […] Once this analysis is performed, the data is used to perform a class prediction analysis. […] The expression value of the genes is shown on the Y axis and the individual patients are plotted on the X-axis.
Blood is obtained from epileptic individuals, epileptic individuals being treated with anticonvulsant valporate and epileptic individuals being treated with anticonvulsant carbamazepine. A pattern of expression is captured and analyzed for each injury state as described in Example 4.

| Compound | Upregulated genes for Carbamazepine (gene AA883870: am26f01.s1 Homo sapiens cDNA, 3 end) | Upregulated genes for Carbamazepine (gene AB000824: Homo sapiens mRNA for trehalase, complete cds) | Pattern of expression in blood for each drug |
| --- | --- | --- | --- |
| NC(=O)N1c2ccccc2C=Cc2ccccc21 [Carbamazepine, carbamazepine] | AA883870 | AB000824 | different from each other and different from the controls |
| CCCC(CCC)C(=O)O [Valporate, valporate] | – | – | different from each other and different from the controls |
